Test results taken from ChEMBL document CHEMBL5036306 (J Med Chem, 2021).
The source made the active and inactive calls. The rule behind the calls is not given here.

Tests used:
[1] = target: Histone deacetylase 3 (Homo sapiens, UniProt O15379); test: Inhibition of recombinant HDAC3 (unknown origin) using Boc-Lys(acetyl)-AMC as substrate preincubated for 1 hr followed by substrate addition and measured after 2 hrs by fluorescence based assay
[2] = organism: Homo sapiens; test: Selectivity ratio of IC50 for recombinant HDAC3 (unknown origin) to IC50 for recombinant HDAC6 (unknown origin)
[3] = Antioxidant activity assessed as DPPH radical scavenging activity incubated for 30 mins under dark condition by microplate reader based assay; format: functional
[4] = Antioxidant activity of compound assessed as trolox equivalent of AAPH radical scavenging activity at 2 to 4 uM preincubated for 15 mins followed by AAPH addition and measured every 2 mins for 90 mins by ORAC-fluorescein assay; format: functional; settings: dose 2-4 µM, time 105.0 min
[5] = target: Histone deacetylase 1 (Homo sapiens, UniProt Q13547); test: Inhibition of recombinant HDAC1 (unknown origin) using Boc-Lys(Ac)-AMC as substrate pre-incubated for 1 hr followed by substrate addition and measured after 2 hrs by fluorescence based assay
Sequence of Histone deacetylase 1 (Q13547 whole entry): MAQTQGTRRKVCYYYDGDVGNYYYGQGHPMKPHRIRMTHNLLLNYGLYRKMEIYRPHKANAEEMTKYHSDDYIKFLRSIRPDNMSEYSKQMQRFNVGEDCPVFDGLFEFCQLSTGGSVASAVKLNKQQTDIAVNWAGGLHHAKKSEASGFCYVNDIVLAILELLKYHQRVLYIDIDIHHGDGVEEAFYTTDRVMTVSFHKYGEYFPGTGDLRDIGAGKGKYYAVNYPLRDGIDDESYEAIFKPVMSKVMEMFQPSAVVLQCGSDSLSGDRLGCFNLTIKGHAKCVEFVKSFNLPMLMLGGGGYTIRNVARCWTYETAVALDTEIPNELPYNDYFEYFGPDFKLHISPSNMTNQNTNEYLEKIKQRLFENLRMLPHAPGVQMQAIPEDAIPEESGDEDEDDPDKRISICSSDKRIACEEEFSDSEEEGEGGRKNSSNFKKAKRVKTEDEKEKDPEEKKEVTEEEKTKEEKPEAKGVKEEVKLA

[6] = target: Histone deacetylase 2 (Homo sapiens, UniProt Q92769); test: Inhibition of recombinant HDAC2 (unknown origin) using Boc-Lys(Ac)-AMC as substrate pre-incubated for 1 hr followed by substrate addition and measured after 2 hrs by fluorescence based assay
Sequence of Histone deacetylase 2 (Q92769 whole entry): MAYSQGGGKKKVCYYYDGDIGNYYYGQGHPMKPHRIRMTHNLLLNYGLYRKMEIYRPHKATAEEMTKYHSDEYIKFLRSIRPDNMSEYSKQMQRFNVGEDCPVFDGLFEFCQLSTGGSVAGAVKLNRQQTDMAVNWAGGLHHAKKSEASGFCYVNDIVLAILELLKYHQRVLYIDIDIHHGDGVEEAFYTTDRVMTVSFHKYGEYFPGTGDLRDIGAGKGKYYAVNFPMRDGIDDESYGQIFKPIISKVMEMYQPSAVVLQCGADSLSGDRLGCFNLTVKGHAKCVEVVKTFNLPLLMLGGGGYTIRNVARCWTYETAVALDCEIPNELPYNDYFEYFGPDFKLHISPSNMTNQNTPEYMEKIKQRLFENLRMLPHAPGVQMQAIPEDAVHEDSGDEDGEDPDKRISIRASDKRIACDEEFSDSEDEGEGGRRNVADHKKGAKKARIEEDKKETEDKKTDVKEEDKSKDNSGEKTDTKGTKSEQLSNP

[7] = target: Histone deacetylase 4 (Homo sapiens, UniProt P56524); test: Inhibition of recombinant HDAC4 (unknown origin) using Boc-Lys(trifluoroacetyl)-AMC as substrate pre-incubated for 1 hr followed by substrate addition and measured after 2 hrs by fluorescence based assay
Sequence of Histone deacetylase 4 (P56524 whole entry): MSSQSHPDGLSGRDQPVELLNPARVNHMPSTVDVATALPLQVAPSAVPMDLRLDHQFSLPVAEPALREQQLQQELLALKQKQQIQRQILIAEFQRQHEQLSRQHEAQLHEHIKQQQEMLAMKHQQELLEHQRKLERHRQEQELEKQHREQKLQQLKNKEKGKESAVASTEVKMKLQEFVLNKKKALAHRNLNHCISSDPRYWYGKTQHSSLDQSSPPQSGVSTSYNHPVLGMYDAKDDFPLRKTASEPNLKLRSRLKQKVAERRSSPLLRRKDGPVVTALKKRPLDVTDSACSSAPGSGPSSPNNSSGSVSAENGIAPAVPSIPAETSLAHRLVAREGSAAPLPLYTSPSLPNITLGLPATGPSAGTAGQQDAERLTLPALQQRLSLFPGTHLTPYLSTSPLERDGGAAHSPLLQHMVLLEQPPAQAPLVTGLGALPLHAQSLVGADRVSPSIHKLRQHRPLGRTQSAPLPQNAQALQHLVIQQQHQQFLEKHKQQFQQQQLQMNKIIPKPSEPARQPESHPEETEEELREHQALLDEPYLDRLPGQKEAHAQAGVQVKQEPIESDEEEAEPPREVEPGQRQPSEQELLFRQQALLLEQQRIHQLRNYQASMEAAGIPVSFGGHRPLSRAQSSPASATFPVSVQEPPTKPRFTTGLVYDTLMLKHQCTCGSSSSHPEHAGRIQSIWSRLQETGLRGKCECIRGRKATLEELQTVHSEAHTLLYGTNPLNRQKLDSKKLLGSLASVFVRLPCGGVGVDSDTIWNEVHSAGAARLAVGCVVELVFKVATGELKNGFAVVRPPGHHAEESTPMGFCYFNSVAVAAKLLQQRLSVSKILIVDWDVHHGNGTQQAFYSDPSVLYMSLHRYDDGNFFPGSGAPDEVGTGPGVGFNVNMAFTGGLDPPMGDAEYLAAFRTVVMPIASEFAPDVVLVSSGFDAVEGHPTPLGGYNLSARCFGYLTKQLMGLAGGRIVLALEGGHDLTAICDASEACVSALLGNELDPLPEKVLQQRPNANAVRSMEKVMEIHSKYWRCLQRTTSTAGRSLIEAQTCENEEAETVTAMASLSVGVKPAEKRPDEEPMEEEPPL

[8] = target: T1, Histone deacetylase 7 (Homo sapiens, UniProt Q8WUI4); test: Inhibition of recombinant HDAC7 (unknown origin) using Boc-Lys(trifluoroacetyl)-AMC as substrate pre-incubated for 1 hr followed by substrate addition and measured after 2 hrs by fluorescence based assay
T1 sequence (Q8WUI4 whole entry): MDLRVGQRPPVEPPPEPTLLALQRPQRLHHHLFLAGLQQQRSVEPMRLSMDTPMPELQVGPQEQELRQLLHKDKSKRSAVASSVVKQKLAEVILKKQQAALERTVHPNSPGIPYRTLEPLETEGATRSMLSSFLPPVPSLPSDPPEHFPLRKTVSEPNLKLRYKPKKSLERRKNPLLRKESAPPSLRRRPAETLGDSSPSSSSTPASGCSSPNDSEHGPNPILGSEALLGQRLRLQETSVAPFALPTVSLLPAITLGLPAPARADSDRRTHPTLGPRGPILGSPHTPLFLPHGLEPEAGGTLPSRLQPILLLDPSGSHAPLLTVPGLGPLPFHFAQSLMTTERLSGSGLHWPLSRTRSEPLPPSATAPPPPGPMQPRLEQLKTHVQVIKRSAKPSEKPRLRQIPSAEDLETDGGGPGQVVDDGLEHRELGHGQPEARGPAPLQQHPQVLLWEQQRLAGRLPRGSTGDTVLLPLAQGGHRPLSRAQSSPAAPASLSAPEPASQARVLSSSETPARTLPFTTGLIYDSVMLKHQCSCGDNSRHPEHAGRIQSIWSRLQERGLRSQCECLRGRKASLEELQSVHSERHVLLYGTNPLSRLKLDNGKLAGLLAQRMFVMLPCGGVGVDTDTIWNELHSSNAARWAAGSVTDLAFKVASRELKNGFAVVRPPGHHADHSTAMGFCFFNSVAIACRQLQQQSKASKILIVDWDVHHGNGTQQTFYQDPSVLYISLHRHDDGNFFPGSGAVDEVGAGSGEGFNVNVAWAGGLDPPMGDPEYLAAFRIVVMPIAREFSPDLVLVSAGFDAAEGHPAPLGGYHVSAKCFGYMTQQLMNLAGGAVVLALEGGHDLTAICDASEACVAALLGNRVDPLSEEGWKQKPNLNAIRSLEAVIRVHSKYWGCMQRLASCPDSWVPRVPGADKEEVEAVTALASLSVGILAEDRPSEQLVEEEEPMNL

[9] = target: Histone deacetylase 9 (Homo sapiens, UniProt Q9UKV0); test: Inhibition of recombinant HDAC9 (unknown origin) using Boc-Lys(trifluoroacetyl)-AMC as substrate pre-incubated for 1 hr followed by substrate addition and measured after 2 hrs by fluorescence based assay
Sequence of Histone deacetylase 9 (Q9UKV0 whole entry): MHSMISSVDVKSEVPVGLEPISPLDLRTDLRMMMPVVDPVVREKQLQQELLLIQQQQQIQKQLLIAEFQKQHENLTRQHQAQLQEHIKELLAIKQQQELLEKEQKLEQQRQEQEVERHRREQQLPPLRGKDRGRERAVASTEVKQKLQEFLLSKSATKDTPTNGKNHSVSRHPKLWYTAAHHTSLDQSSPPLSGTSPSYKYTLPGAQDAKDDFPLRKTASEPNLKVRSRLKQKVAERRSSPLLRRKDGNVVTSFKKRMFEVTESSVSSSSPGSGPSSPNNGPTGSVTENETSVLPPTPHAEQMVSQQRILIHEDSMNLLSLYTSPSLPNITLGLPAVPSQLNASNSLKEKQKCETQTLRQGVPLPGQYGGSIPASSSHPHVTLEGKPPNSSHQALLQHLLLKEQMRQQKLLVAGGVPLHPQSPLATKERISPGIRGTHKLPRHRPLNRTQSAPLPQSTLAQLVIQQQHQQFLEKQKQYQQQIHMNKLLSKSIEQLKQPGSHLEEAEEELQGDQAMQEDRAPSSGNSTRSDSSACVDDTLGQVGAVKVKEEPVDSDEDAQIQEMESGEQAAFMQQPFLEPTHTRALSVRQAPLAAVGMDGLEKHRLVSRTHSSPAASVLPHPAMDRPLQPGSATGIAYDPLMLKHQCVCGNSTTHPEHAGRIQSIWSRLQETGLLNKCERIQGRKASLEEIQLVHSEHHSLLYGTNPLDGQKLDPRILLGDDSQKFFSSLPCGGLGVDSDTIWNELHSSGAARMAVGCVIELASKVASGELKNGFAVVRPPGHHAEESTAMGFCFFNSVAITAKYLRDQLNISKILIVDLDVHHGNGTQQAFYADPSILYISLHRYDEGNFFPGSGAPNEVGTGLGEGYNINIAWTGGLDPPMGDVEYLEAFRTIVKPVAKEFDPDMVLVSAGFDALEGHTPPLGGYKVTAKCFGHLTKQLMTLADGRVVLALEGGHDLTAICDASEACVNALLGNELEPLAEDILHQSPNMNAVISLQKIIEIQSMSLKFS

[10] = organism: Homo sapiens; test: Selectivity ratio of IC50 for recombinant HDAC1 (unknown origin) to IC50 for recombinant HDAC6 (unknown origin)
[11] = organism: Homo sapiens; test: Selectivity ratio of IC50 for recombinant HDAC2 (unknown origin) to IC50 for recombinant HDAC6 (unknown origin)
[12] = organism: Homo sapiens; test: Selectivity ratio of IC50 for recombinant HDAC4 (unknown origin) to IC50 for recombinant HDAC6 (unknown origin)
[13] = organism: Homo sapiens; test: Selectivity ratio of IC50 for recombinant HDAC7 (unknown origin) to IC50 for recombinant HDAC6 (unknown origin)
[14] = organism: Homo sapiens; test: Selectivity ratio of IC50 for recombinant HDAC9 (unknown origin) to IC50 for recombinant HDAC6 (unknown origin)
[15] = Metal chelating activity assessed as compound-Cu2+ complex formation at 10 to 200 uM incubated for 2 mins followed by pyrocatechol violet addition and further incubated for 10 mins by microplate reader based assay; settings: dose 10-200 µM, time 12.0 min
[16] = Metal chelating activity compound-Zn2+ complex formation at 10 to 200 uM preincubated for 2 mins followed by di-thizone addition by microplate reader based assay; settings: dose 10-200 µM
[17] = Metal chelating activity assessed as Fe2+ -ferrozoine complex formation at 10 to 200 uM preincubated for 2 mins followed by ferrozine addition and further incubated for 10 mins by microplate reader based assay; settings: dose 10-200 µM, time 12.0 min
[18] = Neurotoxicity in mouse HT-22 cells assessed as cell survival at 10 uM incubated for 48 hrs by MTT assay; format: cell-based; settings: ht-22, 48 h, 10 µM
[19] = system: N9; test: Immunomodulatory activity in LPS-induced mouse N9 microglial cells assessed as increase in TREM2 expression at 0.1 to 5 uM incubated for 24 hrs by Western blot analysis; format: functional; settings: dose 0.1-5 µM
[20] = system: N9; test: Immunomodulatory activity in LPS-induced mouse N9 microglial cells assessed as increase in TGF-beta2 expression at 0.1 to 5 uM incubated for 24 hrs by Western blot analysis; format: functional; settings: dose 0.1-5 µM

Sequence of Histone deacetylase 3 (O15379 whole entry): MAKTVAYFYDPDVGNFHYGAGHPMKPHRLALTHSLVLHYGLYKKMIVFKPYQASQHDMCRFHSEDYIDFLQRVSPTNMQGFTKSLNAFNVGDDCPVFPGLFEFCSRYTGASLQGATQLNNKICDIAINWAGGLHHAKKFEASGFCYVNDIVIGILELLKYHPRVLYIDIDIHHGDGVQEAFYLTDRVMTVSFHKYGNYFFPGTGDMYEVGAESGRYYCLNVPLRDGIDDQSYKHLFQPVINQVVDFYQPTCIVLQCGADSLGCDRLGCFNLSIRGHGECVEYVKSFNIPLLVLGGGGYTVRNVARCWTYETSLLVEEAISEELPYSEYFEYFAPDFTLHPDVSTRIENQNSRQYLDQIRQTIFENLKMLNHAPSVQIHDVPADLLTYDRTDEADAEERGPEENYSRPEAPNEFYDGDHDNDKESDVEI

SMILES | IC50 [1] [nM] | Ratio IC50 [2] | EC50 [3] [nM] | ORAC antioxidant capacity (Trolox equivalents) [4] | IC50 [5] [nM] | IC50 [6] [nM] | IC50 ([7]; read-out: IC50) [nM] | IC50 [8] [nM] | IC50 [9] [nM] | Ratio IC50 [10] | Ratio IC50 [11] | Ratio IC50 [12] | Ratio IC50 [13] | Ratio IC50 [14] | Activity [15] | Activity [16] | Activity [17] | Activity [18] | Activity [19] | Activity [20] | further results
COc1ccc2[nH]cc(CCN(Cc3ccc(C(=O)NO)cc3)C(=O)/C=C/c3ccc(O)c(OC)c3)c2c1 | 1610 | 53 | 10800 | 2.1 | 771 | 2850 | > 10000 | > 10000 | > 10000 | 25 | 93 | > 326 | > 326 | > 326 | Active | Active | Active | Non-Toxic | Active | Active | –
COc1ccc2c(c1)c(CCNC(C)=O)cn2Cc1ccc(C(=O)NO)cc1 | 641 | 57 | 56300 | 1.6 | 262 | 336 | 3430 | 1650 | 362 | 23 | 30 | 306 | 148 | 32 | Active | Active | Active | Toxic | inactive | inactive | IC50 ([7]; read-out: pIC50 (converted)): 3390 nM
